According to US20040266857A1, “Novel lapachone compounds and methods of use thereof” (priority 2002, published 2004):

Tests used:
[1] = test system: DLD1 human colon carcinoma cells; assay: Cell proliferation (colony formation) assay, DLD1; assay type: cell-based; conditions: DLD-1, cancer cell line DLD1, 4 h exposure, colonies scored after 10-15 days, compounds added in micromolar concentrations
Experimental: (§1) Cell proliferation assays were performed as described previously (Müller et al., (1996) J. Med. Chem. 39: 3132-3138; Müller et al., (1994) J. Med. Chem. 37: 1660-1669). More specifically, exponentially growing cells were seeded at 1,000 cells per well in six-well plates and allowed to attach for 24 h. […] Control wells were treated with equivalent volumes of DMSO. After 4 h, the supernatant was removed and fresh medium was added. Cultures were observed daily for 10-15 days and then were fixed and stained. Colonies of greater than 30 cells were scored as survivors. The assays of the present invention as shown in Table 2 and methods of measuring induction of E2F activity and elevation of E2F levels can be carried out following the descriptions found in Li et al., (2003) Proc Natl Acad Sci USA. 100(5): 2674-8 and U.S. Patent Application Publication No.2002/0169135, both incorporated herein by reference in their entireties.

[2] = test system: SW-480 human colon carcinoma cells; assay: Cell proliferation (colony formation) assay, SW480; assay type: cell-based; conditions: cancer cell line SW480, 4 h exposure, colonies scored after 10-15 days, compounds added in micromolar concentrations
Experimental: as §1

[3] = test system: MCF-7 human breast carcinoma cells; assay: Cell proliferation (colony formation) assay, MCF7; assay type: cell-based; conditions: cancer cell line MCF7, 4 h exposure, colonies scored after 10-15 days, compounds added in micromolar concentrations
Experimental: as §1

[4] = test system: MIA PACA-2 human pancreatic carcinoma cells; assay: Cell proliferation (colony formation) assay, PaCa-2; assay type: cell-based; conditions: cancer cell line PaCa-2, 4 h exposure, colonies scored after 10-15 days, compounds added in micromolar concentrations, read-out: Average IC50 Pancr. PaCa-2
Experimental: as §1

[5] = test system: HT-29 human colon carcinoma cells; assay: Cell proliferation (colony formation) assay, HT-29; assay type: cell-based; conditions: cancer cell line HT-29, 4 h exposure, colonies scored after 10-15 days, compounds added in micromolar concentrations
Experimental: as §1

[6] = test system: NCM 460 normal colonic epithelial cells; assay: Cell proliferation (colony formation) assay, NCM460 normal cells; assay type: cell-based; conditions: Homo sapiens; normal cell line NCM460; 4 h exposure, colonies scored after 10-15 days; compounds added in micromolar concentrations; read-out: Average IC50 Normal Cell Lines Colon NCM460
Experimental: as §1

[7] = test system: MCF 10A normal breast epithelial cells; assay: Cell proliferation (colony formation) assay, MCF10A normal cells; assay type: cell-based; conditions: Homo sapiens, normal cell line MCF10A, 4 h exposure, colonies scored after 10-15 days, compounds added in micromolar concentrations, read-out: Average IC50 Normal Cell Lines Breast MCF10A
Experimental: as §1

human cancer cell lines = conditions: single agent; typical range; read-out: antineoplastic activity against human cancer cell lines (IC50); cited from earlier work
[8] = test system: normal fresh or proliferating human PBMC; conditions: cited from earlier work
[9] = test system: E2F family of transcription factors; conditions: cancer cells versus normal cells; cited from earlier work
[10] = test system: cancer cell lines and normal cells; conditions: Li et al. 2003; cited from earlier work
[11] = test system: A549 human lung carcinoma cells; assay: Cell proliferation (colony formation) assay, A549; assay type: cell-based; conditions: cancer cell line A549, 4 h exposure, colonies scored after 10-15 days, compounds added in micromolar concentrations
Experimental: as §1, with “The assays of the present invention as shown in Table 2 and methods of measuring induction of E2F activity and elevation of E2F levels can be carried out following the descriptions found in Li et al., (2003) Proc Natl Acad Sci USA.” left out

For CC1(C)CCC2=C(O1)c1ccccc1C(=O)C2=O [β-Lapachone, 3,4-dihydro-2,2-dimethyl-2H-naphtho[1,2-b]pyran-5,6-dione, reference compound], the IC50 [1] was 3600 nM, the IC50 [2] was 3300 nM and the IC50 [3] was 1000 nM. The IC50 [4] was 1600 nM, the IC50 [5] was 2100 nM and the IC50 [6] was 8100 nM. The IC50 [7] was 5800 nM, the IC50 (human cancer cell lines) was 1000 to 10000 nM and the “cytotoxic effects on normal human PBMC” value [8] was “No cytotoxic effects”. The “induction of sustained E2F activity in nuclei of cancer cells but not in normal cells” value [9] was “induces sustained E2F activity” and the “induction of apoptosis in cancer cell lines versus normal cells” value [10] was “induces apoptosis only in cancer cell lines and not in normal cells”.

Compound CC1(C)CCC2=C(S1)C(=O)c1ccccc1C2=O [Compound 2, 3,4-dihydro-2,2-dimethyl-2H-naphtho[2,3-b]thiopyran-5,10-dione] has an IC50 [1] of 32000 nM, an IC50 [2] of 32000 nM and an IC50 [3] of 16000 nM.

Compound CC1(C)CCC2=C(S1)c1ccccc1C(=O)C2=O [Compound 1, 3,4-dihydro-2,2-dimethyl-2H-naphtho[1,2-b]thiopyran-5,6-dione] has an IC50 [1] of 2000 nM, an IC50 [2] of 1500 nM and an IC50 [3] of 1000 nM. The IC50 [4] was 1500 nM, the IC50 [11] was 1700 nM and the IC50 [5] was 1800 nM. For the same compound, the IC50 [6] was 7500 nM and the IC50 [7] was 6700 nM.

With CC1SC2=C(C(=O)C(=O)c3ccccc32)C1(C)C (stereo not drawn) [Compound 3, 2,3,3-trimethyl-2H-3H-naphtho[1,2-b]thiophene-4,5-dione] the IC50 [1] was 900 nM, the IC50 [2] was 900 nM and the IC50 [3] was 1000 nM. For the same compound, the IC50 [5] was 1500 nM and the IC50 [6] was 2000 nM.

Compound CC1OC2=C(C(=O)C(=O)c3ccccc32)C1(C)C (stereo not drawn) [Dunnione, 2,3,3-trimethyl-2,3,4,5-tetrahydro-naphtho(2,3-b)dihydrofuran-6,7-dione, reference compound] has an IC50 [1] of 2800 nM, an IC50 [2] of 2800 nM and an IC50 [3] of 1000 nM. The IC50 [6] was 4000 nM.

CC1CSC2=C(O1)C(=O)C(=O)c1ccccc12 (stereo not drawn) [Compound 9, 2-methyl-11,12-dehydro-naphtho[1,2-b]thioxane-9,10-dione] showed an IC50 [2] of 1500 nM, an IC50 [4] of 1400 nM and an IC50 [11] of 2000 nM. The IC50 [5] was 1500 nM, the IC50 [6] was 4900 nM and the IC50 [7] was 6400 nM.

CC1OC2=C(SC1C)c1ccccc1C(=O)C2=O (stereo not drawn) [Compound 10, 2,3-dimethyl-11,12-dehydro-naphtho[1,2-b]thioxane-9,10-dione] showed an IC50 [2] of 1000 nM, an IC50 [4] of 2000 nM and an IC50 [11] of 1800 nM. The IC50 [5] was 2000 nM, the IC50 [6] was 6100 nM and the IC50 [7] was 8000 nM.

With O=C1C(=O)c2ccccc2C2=C1C(c1ccccc1)CCS2 (stereo not drawn) [Compound 7, 3,4-dihydro-4-phenyl-2H-naphtho[1,2-b]thiopyran-5,6-dione] the IC50 [4] was 2300 nM, the IC50 [11] was 2000 nM and the IC50 [5] was 2200 nM. For the same compound, the IC50 [6] was 8800 nM and the IC50 [7] was 7000 nM.

Compound CC1SC2=C(C(=O)C(=O)c3ccccc32)C1(c1ccccc1)c1ccccc1 (stereo not drawn) [Compound 5, 2-methyl-3,3-diphenyl-2H-3H-naphtho[1,2-b]thiophene4,5-dione] has an IC50 [4] of 1300 nM, an IC50 [11] of 2300 nM and an IC50 [5] of 1700 nM. The IC50 [6] was 7800 nM and the IC50 [7] was 5900 nM.

Compound CC1SC2=C(OC1(C)C)C(=O)C(=O)c1ccccc12 (stereo not drawn) [Compound 12, 2,2,3-trimethyl-11,12-dehydro-naphtho[1,2-b]thioxane-9,10-dione] has an IC50 [4] of 2200 nM, an IC50 [11] of 3100 nM and an IC50 [5] of 4000 nM. For the same compound, the IC50 [6] was 13100 nM and the IC50 [7] was 14100 nM.

For CC1(C)CCSC2=C1C(=O)C(=O)c1ccccc12 [Compound 6, 3,4-dihydro4,4-dimethyl-2H-naphtho[1,2-b]thiopyran-5,6-dione], the IC50 [4] was 1200 nM, the IC50 [11] was 1600 nM and the IC50 [5] was 1600 nM. For the same compound, the IC50 [6] was 6000 nM and the IC50 [7] was 6300 nM.
